Measurements from patent publication US6429215B1, “N-oxide of heterocyclic ester, amide, thioester, or ketone hair growth compositions and uses” (GPI NIL Holdings, Inc., priority 1998, dated 2002).

Target: FKBP12 (Homo sapiens, UniProt P62942)
Assay: Inhibition of peptidyl-prolyl isomerase (rotamase) activity, apparent Ki
Format: biochemical
Details: chymotrypsin-coupled assay, N-succinyl-Ala-Ala-Pro-Phe-p-nitroanilide, pH 7.8
Description: The inhibition of the prolyl peptidyl cis-trans isomerase activity of FKBP may be measured as an indicator of this affinity.
Inhibition of the peptidyl-prolyl isomerase (rotamase) activity of the compounds used in the inventive methods and pharmaceutical compositions can be evaluated by known methods described in the literature (Harding et al., Nature, 1989, 341:758-760; Holt et al. J. Am. Chem. Soc., 115:9923-9938). These values are obtained as apparent Ki's and are presented for representative compounds in TABLE II.
The cis-trans isomerization of an alanine-proline bond in a model substrate, N-succinyl-Ala-Ala-Pro-Phe-p-nitroanilide, is monitored spectrophotometrically in a chymotrypsin-coupled assay, which releases paranitroanilide from the trans form of the substrate. The inhibition of this reaction caused by the addition of different concentrations of inhibitor is determined, and the data is analyzed as a change in first-order rate constant as a function of inhibitor concentration to yield the apparent Ki values. […]
The absorbance at 390 nm versus time is monitored for 90 seconds using a spectrophotometer and the rate constants are determined from the absorbance versus time data files.

Chain of FKBP12 (P62942 whole entry, species assumed): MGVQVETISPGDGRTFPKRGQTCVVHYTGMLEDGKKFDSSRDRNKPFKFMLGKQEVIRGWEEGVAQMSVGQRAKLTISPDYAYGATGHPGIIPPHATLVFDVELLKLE

Ki: 0.225 µM
Substance: 3-(3-Pyridyl)-1-propyl (2S)-1-(3,3-Dimethyl-1,2-dioxopentyl)-2-pyrrolidinecarboxylate, N-oxide [Compound 1]
